According to patent publication US11000033B2, “Ketone or oxime compound, and herbicide” (NISSAN CHEMICAL CORPORATION, priority 2014, dated 2021):

Assays:
Format in all cases: in vivo
Monochoria vaginalis [1] = assay: Test Example 2: herbicidal activity, application during weed generation in submerged conditions (symbol C); conditions: Table 23; application herbicide amount 320 g/ha; grade 0-5 by criteria of Test Example 1
Procedure, shortened: (§1)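 Paddy pot test, submerged (4 cm water), alluvial soil, mixed sowing; greenhouse 25–30° C. Emulsion formulation diluted to predetermined rate, applied onto floodwater at 1–2 leaf stage. Visual herbicidal rating at 3 wk post-treatment.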

Avena fatua = assay: Test Example 4: herbicidal effect by soil treatment (symbol I); conditions: application herbicide amount 320 g/ha
Procedure, shortened: (§2)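 Seeds were sown in sterilized diluvial soil, covered with about 1.5 cm of soil, and the soil surface was sprayed with a water-diluted emulsion of the compound at a predetermined rate. Plants grew in a greenhouse at 25° C. to 30° C.; effects were scored visually 3 weeks after application.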

corn [2] = assay: Test Example 5: effect on crop by foliage application, plastic box (symbol c); conditions: 320 g/ha, 3 weeks after application
Procedure, shortened: (§3)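 Sterilized diluvial soil, plastic box (21 × 13 × 7 cm); spot sowing, ~1.5 cm soil cover; greenhouse 25–30° C.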

corn [3] = assay: Test Example 4: effect on crop by soil treatment (symbol c); conditions: application herbicide amount 320 g/ha
Procedure, shortened: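 The test used sterilized diluvial soil. Seed was set down in spots and overlaid with about 1.5 cm of soil before growth in a greenhouse kept at 25° C. to 30° C.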

Digitaria ciliaris = assay: Test Example 4: herbicidal effect by soil treatment (symbol F); conditions: application herbicide amount 320 g/ha
Procedure, shortened: as §2

[4] = tested on: Echinochloa crus-galli var. crus-galli; assay: Test Example 4: herbicidal effect by soil treatment (symbol H); conditions: application herbicide amount 320 g/ha
Procedure, shortened: as §2

rice plant = assay: Test Example 5: effect on crop by foliage application, plastic box (symbol b); conditions: 320 g/ha, 3 weeks after application
Procedure, shortened: as §3

[5] = tested on: Echinochloa oryzacola Vasing.; assay: Test Example 2: herbicidal activity, application during weed generation in submerged conditions (symbol A); conditions: Table 23; application herbicide amount 320 g/ha; grade 0-5 by criteria of Test Example 1
Procedure, shortened: as §1

soybean = assay: Test Example 5: effect on crop by foliage application, plastic box (symbol d); conditions: 320 g/ha, 3 weeks after application
Procedure, shortened: as §3

Scirpus juncoides = assay: Test Example 2: herbicidal activity, application during weed generation in submerged conditions (symbol B); conditions: Table 23; application herbicide amount 320 g/ha; grade 0-5 by criteria of Test Example 1
Procedure, shortened: as §1

Galium spurium = assay: Test Example 4: herbicidal effect by soil treatment (symbol Q); conditions: application herbicide amount 320 g/ha
Procedure, shortened: as §2

Apera spica-venti = assay: Test Example 4: herbicidal effect by soil treatment (symbol L); conditions: application herbicide amount 320 g/ha
Procedure, shortened: as §2

Monochoria vaginalis [6] = assay: Test Example 1: herbicidal activity, application before weed generation in submerged conditions (symbol C); conditions: application herbicide amount 320 g/ha
Procedure, shortened: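 Scores run 0 to 5 by herbicidal ratio, with 5 meaning 90% or more and 0 meaning 5% or lower, read 3 weeks after treatment. Compound was applied as a diluted emulsion to the water surface of submerged alluvial-soil pots on the day weed seeds were sown.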

Abutilon theophrasti = assay: Test Example 4: herbicidal effect by soil treatment (symbol M); conditions: application herbicide amount 320 g/ha
Procedure, shortened: as §2

Lolium multiflorum Lam. = assay: Test Example 5: herbicidal effect by foliage application, plastic box (symbol K); conditions: 320 g/ha, 3 weeks after application
Procedure, shortened: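 Sowing in sterilized diluvial soil, 14 days' greenhouse growth at 25° C. to 30° C., then uniform small-sprayer foliar application of aqueous emulsion dilution; plants scored three weeks afterwards.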

rapeseed = assay: Test Example 4: effect on crop by soil treatment (symbol g); conditions: application herbicide amount 320 g/ha
Procedure, shortened: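 Seeds were sown in spots on sterilized diluvial soil in a plastic box and covered with about 1.5 cm of soil. Plants were then grown in a greenhouse at 25° C. to 30° C.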

Structure (SMILES)	Herbicidal effect grade, C: Monochoria vaginalis (Monochoria vaginalis [1])	c: corn, effect on crop grade (corn [2])	b: directly sowed rice plant, effect on crop grade (rice plant)	Herbicidal effect grade, A: Echinochloa oryzacola Vasing. [5]	d: soybean, effect on crop grade (soybean)	Herbicidal effect grade, B: Scirpus juncoides (Scirpus juncoides)	Herbicidal effect grade, C: Monochoria vaginalis (Monochoria vaginalis [6])	K: Lolium multiflorum Lam., herbicidal effect grade (Lolium multiflorum Lam.)	I: Avena fatua, herbicidal effect grade (Avena fatua)	c: corn, effect on crop grade (corn [3])	F: Digitaria ciliaris, herbicidal effect grade (Digitaria ciliaris)	H: Echinochloa crus-galli var. crus-galli, herbicidal effect grade [4]	Q: Galium spurium, herbicidal effect grade (Galium spurium)	L: Apera spica-venti, herbicidal effect grade (Apera spica-venti)	M: Abutilon theophrasti, herbicidal effect grade (Abutilon theophrasti)	g: rapeseed, effect on crop grade (rapeseed)	other results
CON=C(C)CC1CC(OCC(=O)OC)=C(c2c(C)cc(C)cc2C)C1=O (stereo not shown) [1-012]	0 (Herbicidal ratio of 5% or lower (almost no effect))	0 (Herbicidal ratio of 5% or lower (almost no effect))	0 (Herbicidal ratio of 5% or lower (almost no effect))	0 (Herbicidal ratio of 5% or lower (almost no effect))	0 (Herbicidal ratio of 5% or lower (almost no effect))	0 (Herbicidal ratio of 5% or lower (almost no effect))	0 (Herbicidal ratio of 5% or lower (almost no effect))	0 (Herbicidal ratio of 5% or lower (almost no effect))									I (Avena fatua) herbicidal effect grade (Avena fatua): 0 (Herbicidal ratio of 5% or lower (almost no effect)); c (corn) effect on crop grade (corn [3]): 0 (Herbicidal ratio of 5% or lower (almost no effect)); F (Digitaria ciliaris) herbicidal effect grade (Digitaria ciliaris): 0 (Herbicidal ratio of 5% or lower (almost no effect)); H (Echinochloa crus-galli var. crus-galli) herbicidal effect grade [4]: 0 (Herbicidal ratio of 5% or lower (almost no effect)); Q (Galium spurium) herbicidal effect grade (Galium spurium): 0 (Herbicidal ratio of 5% or lower (almost no effect)); L (Apera spica-venti) herbicidal effect grade (Apera spica-venti): 0 (Herbicidal ratio of 5% or lower (almost no effect)); M (Abutilon theophrasti) herbicidal effect grade (Abutilon theophrasti): 0 (Herbicidal ratio of 5% or lower (almost no effect)); g (rapeseed) effect on crop grade (rapeseed): 0 (Herbicidal ratio of 5% or lower (almost no effect))
CCc1cc(Br)cc(C)c1C1=C(O)CC(CC(C)=NOC)C1=O (stereo not shown) [6-001]	0 (Herbicidal ratio of 5% or lower (almost no effect))	5 (Herbicidal ratio of 90% or more (almost completely withered))	5 (Herbicidal ratio of 90% or more (almost completely withered))	4 (Herbicidal ratio of 70% or higher and lower than 90%)	0 (Herbicidal ratio of 5% or lower (almost no effect))	0 (Herbicidal ratio of 5% or lower (almost no effect))	0 (Herbicidal ratio of 5% or lower (almost no effect))	5 (Herbicidal ratio of 90% or more (almost completely withered))	5 (Herbicidal ratio of 90% or more (almost completely withered))	5 (Herbicidal ratio of 90% or more (almost completely withered))	5 (Herbicidal ratio of 90% or more (almost completely withered))	5 (Herbicidal ratio of 90% or more (almost completely withered))	0 (Herbicidal ratio of 5% or lower (almost no effect))	5 (Herbicidal ratio of 90% or more (almost completely withered))	0 (Herbicidal ratio of 5% or lower (almost no effect))	2 (Herbicidal ratio of 20% or higher and lower than 40%)	
CCc1cc(C#C[Si](C)(C)C)cc(C)c1C1=C(O)CC(CC(C)=NOC)C1=O (mixture of isomers) [6-008]	5 (Herbicidal ratio of 90% or more (almost completely withered))	3 (Herbicidal ratio of 40% or higher and lower than 70%)	3 (Herbicidal ratio of 40% or higher and lower than 70%)	5 (Herbicidal ratio of 90% or more (almost completely withered))	1 (Herbicidal ratio of 5% or higher and lower than 20%)	5 (Herbicidal ratio of 90% or more (almost completely withered))	5 (Herbicidal ratio of 90% or more (almost completely withered))	3 (Herbicidal ratio of 40% or higher and lower than 70%)	4 (Herbicidal ratio of 70% or higher and lower than 90%)	3 (Herbicidal ratio of 40% or higher and lower than 70%)	5 (Herbicidal ratio of 90% or more (almost completely withered))	5 (Herbicidal ratio of 90% or more (almost completely withered))	0 (Herbicidal ratio of 5% or lower (almost no effect))	5 (Herbicidal ratio of 90% or more (almost completely withered))	0 (Herbicidal ratio of 5% or lower (almost no effect))	0 (Herbicidal ratio of 5% or lower (almost no effect))	
Cc1cc(C)c(C2=C(O)CC(CC(=O)CC3CC3)C2=O)c(C)c1 (stereo not shown) [2-026]	0 (Herbicidal ratio of 5% or lower (almost no effect))	2 (Herbicidal ratio of 20% or higher and lower than 40%)	5 (Herbicidal ratio of 90% or more (almost completely withered))	4 (Herbicidal ratio of 70% or higher and lower than 90%)	0 (Herbicidal ratio of 5% or lower (almost no effect))	3 (Herbicidal ratio of 40% or higher and lower than 70%)	0 (Herbicidal ratio of 5% or lower (almost no effect))	5 (Herbicidal ratio of 90% or more (almost completely withered))	0 (Herbicidal ratio of 5% or lower (almost no effect))	1 (Herbicidal ratio of 5% or higher and lower than 20%)	5 (Herbicidal ratio of 90% or more (almost completely withered))	5 (Herbicidal ratio of 90% or more (almost completely withered))	0 (Herbicidal ratio of 5% or lower (almost no effect))	2 (Herbicidal ratio of 20% or higher and lower than 40%)	0 (Herbicidal ratio of 5% or lower (almost no effect))	4 (Herbicidal ratio of 70% or higher and lower than 90%)	
